Assay results from patent publication US6369109B1, “Betulinic acid and derivatives thereof useful for the treatment of neuroectodermal tumor” (Deutsches Krebsforschungszentrum Stiftung des Offentlichen …, priority 1998, dated 2002).
“Also recorded” adds a separate entry of the source. Residues, ends and D or L forms follow the SMILES beside them. *: point of attachment. Cbz = O=C(OCc1ccccc1)*; CH2F = FC*

Key:
[1] = tested on: SH-EP neuroblastoma cells; test: Specific apoptosis, FACS analysis of propidium iodide-stained nuclei; assay type: cell-based, human; settings: for effect of CD95 blockage by F(ab′)2 anti-APO-1 on drug-induced apoptosis: 10 μg/ml antibody fragments 1 h before drug, 10 μg/ml betulinic acid, 50 μg/ml VP-16, 10 μg/ml cisplatinum, 0.5 μg/ml doxorubicin, 72 h, FIG. 3B
Protocol: Quantification of DNA fragmentation was performed by FACS analysis of propidium iodide stained nuclei as described in Nicoletti et al, 1991, J. Immunol. Methods. 139: 271-279. Cells were analyzed for DNA content by flow. cytometry (FACScan, Becton Dickinson, Heidelberg, Germany) using CELLQuest software. Early apoptotic changes were identified by staining with biotinylated annexin V (Bender Med Systems, Vienna, Austria) following the manufacturer's instructions. Annexin V binds to exposed phosphatidylserine on the surface of apoptotic cells. Koopman et al, 1994, Blood. 84:1415-1420. Cells were analyzed by flow cytometry (FAC-Scan. Becton Dickinson) using CELLQuest software.
Cells were treated with 10 μg/ml betulinic acid for 72 h. Apoptosis was assessed by FACS analysis of propidium iodide-stained nuclei. Percentage of specific apoptosis was calculated as follows: experimental apoptosis (%) −spontaneous apoptosis in medium (%)/[100%−spontaneous apoptosis in medium (%)]×100%. […]
Cells were incubated for indicated times with doxorubicin, betulinic acid or anti-APO-1 and harvested by trypsinization using 0.05% trypsin and 0.02% EDTA without Ca^2+and Mg^2+(Life Technologies, Inc.). Quantification of DNA fragmentation was performed by FACS analysis of propidium iodide stained nuclei as previously described in Nicoletti et al., J. ImmunoL Methods 139:271-279, using CELLQuest software (Becton Dickinson, Heidelberg, Germany).
(§1) SHEP cells transfected with Bcl-2 or BCl-XL or a neomycin resistance vector only (Neo) were treated with 0.5 μg/ml Doxorubicin or 10 μg/ml Betulinic acid for 48 h (A) or 24 h (B and C). Cells transfected with a neomycin resistance vector only (Neo) were treated in the presence or absence of 50 μm BA or 60 μm zVAD-fmk. Nuclear apoptosis was determined by FACS analysis or propidium iodide-stained DNA content in intact cells (A) or in a CFS incubating isolated nuclei with mitochondria from cells treated with Doxo or betulinic acid (C). ΔΨm was determined by staining cells with the potential-sensitive fluorochrome DiOC6(3) (B).

[2] = tested on: SH-EP neuroblastoma cells; test: Mitochondrial potential (DiOC6(3)), ROS (HE) and lipid peroxidation (NAO) by flow cytometry; assay type: cell-based, human; settings: FIG. 12B
Protocol: The cationic lipophilic fluorochrome DiOC6(3)(460 ng/ml, Molecular Probes, Eugene, Oreg.) was used to measure the Δ¥m. HE(126 ng/ml. Molecular probes) was used to determine ROS generation, and NAO (94 ng/ml, Molecular Probes) was used to determine lipid peroxidation. Kroemer et al, 1997, Immunol. Today. 18:44-51. Cells were incubated for 12 min at 37° C. in the presence of the fluorochromes, washed in PBS/1% FCS, and immediately analyzed by flow cytometry (FACScan, Becton Dickinson). DiOC6(3) and NAO fluorescence were recorded in fluorescence 1; He fluorescence was assessed in fluorescence 3. The percentage of cells with low mitochondrial potential or enhanced ROS production was calculated in comparison to untreated control cells.
SH-EP neuroblastoma cells were treated with 10 μg/ml betulinic acid for the indicated times. Cells were stained with the fluorochrome DiOC6(3) to determine ΔΨm and with HE to determine ROS generation and analyzed by flow cytometry. Fold increase in cells with low ΔΨm [DiOC6(3)^low] or with enhanced ROS production (HE+) is shown.
SH-EP neuroblastoma cells treated with 10 μg/ml […] for 24 h (heavy line) or control cells (thin line) were strained with NAO to assess oxidized cardiolipin and analyzed by flow cytomety.
For determination of mitochondrial membrane potential, cells (5×10^5/ml) were incubated with 3,3′-dihexyloxacarbocyanide iodide (DiOC6(3), 40 nM, Molecular Probes, Inc., Eugene, Oreg.) for 15 min at 37° C. and analyzed on a flow cytometer (FACScan) (Zamzarni et al., 1996 J. Exp. Med. 183:1533-44). For cell sorting, cells were stained with DiOC6(3) and sorted into DiOC6(3)^high and DiOC6(3)^low cells on a cytofluorometer (FACS Vantage, Becton Dickinson). As a control, cells were treated with the uncoupling agent carbonyl cyanide m-chlorophenylhydrazone (mCICCP, 200 μM, Sigma).
as §1

CO[C@H](C/C=C\C=C\CC/C=C/C[C@H](C)/C=C/C(=C\C(=O)O)CC(=O)O)/C(C)=C\C=C(/C)C(=O)O [bongkrekic acid]
effect of CD95 blockage by F(ab′)2 anti-APO-1 on drug-induced apoptosis [1]: did not inhibit
effect of inhibitor on drug-triggered nuclear fragmentation ([1]; 50 μM bongkrekic acid, doxorubicin or betulinic acid, FIG. 12A): inhibited drug-triggered nuclear fragmentation and ΔΨm loss
effect of inhibitor on drug-triggered ΔΨm loss ([2]; 50 μM bongkrekic acid, doxorubicin or betulinic acid): inhibited drug-triggered nuclear fragmentation and ΔΨm loss

COc1cccc2c1C(=O)c1c(O)c3c(c(O)c1C2=O)C[C@@](O)(C(=O)CO)C[C@@H]3O[C@H]1C[C@H](N)[C@H](O)[C@H](C)O1 [doxorubicin]
nuclear fragmentation in intact SHEP cells ([1]; 0.5 μg/ml doxorubicin or 10 μg/ml betulinic acid, 48 h, FIG. 12A): induced loss of ΔΨm and nuclear fragmentation
effect of CD95 blockage by F(ab′)2 anti-APO-1 on drug-induced apoptosis [1]: significantly blocked; also recorded: markedly reduced
loss of ΔΨm in intact SHEP cells ([2]; 0.5 μg/ml doxorubicin or 10 μg/ml betulinic acid, 24 h): induced loss of ΔΨm and nuclear fragmentation

COC(=O)C[C@H](NC(=O)[C@H](C)NC(=O)[C@@H](NC(=O)OCc1ccccc1)C(C)C)C(=O)CF [zVAD-fmk, benzyloxycarbonyl-Val-Ala-Asp-Fluoromethylketone] (Cbz-Val-Ala-Asp(OMe)-CH2F)
effect of inhibitor on betulinic acid-induced apoptosis ([1]; 60 μM zVAD-fmk, 10 μg/ml betulinic acid 72 h, FIG. 2D): almost completely abrogated apoptosis
effect of inhibitor on betulinic acid-induced nuclear fragmentation ([1]; 60 μM zVAD-fmk, FIG. 12A): only affected the betulinic acid-induced nuclear fragmentation
effect of inhibitor on doxorubicin-induced nuclear fragmentation ([1]; 60 μM zVAD-fmk, FIG. 12A): both inhibited
effect of inhibitor on betulinic acid-induced ΔΨm dissipation ([2]; 60 μM zVAD-fmk): had no effect
effect of inhibitor on doxorubicin-induced loss of ΔΨm ([2]; 60 μM zVAD-fmk): both inhibited
